IC50 data for two compounds are collected here from BindingDB's records for doi:10.1021/jm00087a023 (American Cyanamid, 1992).

A short description of the assay: Inhibition of PAF induced platelet aggregation in rabbit.

Regarding `CCCCCCCCCCCCCCOc1cccc(OP(=O)([O-])Oc2cccc(C[n+]3c[nH]c4ccccc43)c2)c1OC`, the IC50 (in general, the concentration that inhibits the measured activity by half) was found to be 1.49 µM.

`CCCCCCCCCCCCCCCCOCC(COP(=O)(O)Oc1cccc(C[P+](c2ccccc2)(c2ccccc2)c2ccccc2)c1)OC` (configuration not stated) displayed an IC50 of 13.6 µM.
